Source: patent US9346809B2 (LEO PHARMA A/S, priority 2009, dated 2016)
Where two headings read alike, the source gives them in different places.

Legend:
Format in all cases: biochemical
[1] = target: T1, JAK1 (aa 850-1154, catalytic domain, GST-tag) (Homo sapiens, UniProt P23458); test: JAK kinase assay (HTRF, phosphorylation of TK substrate-biotin), JAK1; settings: ATP at Km (7 μM)
T1 construct: JAK1 (aa 850-1154) and TYK2 (aa 871-1187) are expressed with an N-terminally fused GST-tag; GST (N); purchased Carna Biosciences, Inc; host or cells: baculovirus expression system
Procedure, shortened: (§1)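 EC50 values come from HTRF signal of phospho-peptide detected by STK Ab Cryptate and Streptavidin-XL665 after overnight incubation. Reactions ran 20-30 min at RT in Hepes pH 7.0, 0.01% BSA, 1 mM DTT, with ATP at Km: 7, 4, 2 and 13 μM for JAK1, JAK2, JAK3, TYK2.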

[2] = target: T2, JAK2 (catalytic domain, His-tag) (Homo sapiens, UniProt O60674); test: JAK kinase assay (HTRF, phosphorylation of TK substrate-biotin), JAK2; settings: ATP at Km (4 μM)
T2 construct: All four purified enzymes contain only the catalytic domain; His (N); purchased Carna Biosciences, Inc; host or cells: baculovirus expression system
Procedure, shortened: as §1

[3] = target: T3, JAK3 (catalytic domain, His-tag) (Homo sapiens, UniProt P52333); test: JAK kinase assay (HTRF, phosphorylation of TK substrate-biotin), JAK3; settings: ATP at Km (2 μM)
T3 construct: All four purified enzymes contain only the catalytic domain; His (N); purchased Carna Biosciences, Inc; host or cells: baculovirus expression system
Procedure, shortened: as §1

[4] = target: T4, TYK2 (aa 871-1187, catalytic domain, GST-tag) (Homo sapiens, UniProt P29597); test: JAK kinase assay (HTRF, phosphorylation of TK substrate-biotin), TYK2; settings: ATP at Km (13 μM)
T4 construct: JAK1 (aa 850-1154) and TYK2 (aa 871-1187) are expressed with an N-terminally fused GST-tag; GST (N); purchased Carna Biosciences, Inc; host or cells: baculovirus expression system
T4 sequence (P29597 871-1187): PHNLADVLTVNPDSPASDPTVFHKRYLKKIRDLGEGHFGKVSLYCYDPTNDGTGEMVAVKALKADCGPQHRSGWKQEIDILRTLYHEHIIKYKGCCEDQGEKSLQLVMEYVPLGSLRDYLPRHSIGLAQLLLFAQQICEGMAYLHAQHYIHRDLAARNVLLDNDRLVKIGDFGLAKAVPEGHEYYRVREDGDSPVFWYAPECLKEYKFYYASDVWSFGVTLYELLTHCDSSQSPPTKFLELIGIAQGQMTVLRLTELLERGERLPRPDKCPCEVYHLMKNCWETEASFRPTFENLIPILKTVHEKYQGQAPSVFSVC
Procedure, shortened: as §1

[5] = read-out: JAK1 kinase inhibitory activity (EC50 indicator)
[6] = read-out: JAK2 kinase inhibitory activity (EC50 indicator)
[7] = read-out: JAK3 kinase inhibitory activity (EC50 indicator)
[8] = read-out: TYK2 kinase inhibitory activity (EC50 indicator)
[9] = HTRF assay, read-out: JAK1 kinase inhibitory activity (EC50 indicator)
[10] = HTRF assay, read-out: JAK2 kinase inhibitory activity (EC50 indicator)
[11] = HTRF assay, read-out: JAK3 kinase inhibitory activity (EC50 indicator)
[12] = HTRF assay, read-out: TYK2 kinase inhibitory activity (EC50 indicator)

T2 sequence (O60674 849-1124 limits assumed): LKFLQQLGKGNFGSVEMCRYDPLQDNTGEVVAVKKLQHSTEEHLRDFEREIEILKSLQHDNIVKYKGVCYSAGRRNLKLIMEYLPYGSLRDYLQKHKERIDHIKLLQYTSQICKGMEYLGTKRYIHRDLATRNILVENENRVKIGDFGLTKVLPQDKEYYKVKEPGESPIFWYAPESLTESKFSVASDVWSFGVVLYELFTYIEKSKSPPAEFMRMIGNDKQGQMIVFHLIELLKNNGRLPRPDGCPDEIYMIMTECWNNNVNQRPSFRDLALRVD
T1 sequence (P23458 850-1154): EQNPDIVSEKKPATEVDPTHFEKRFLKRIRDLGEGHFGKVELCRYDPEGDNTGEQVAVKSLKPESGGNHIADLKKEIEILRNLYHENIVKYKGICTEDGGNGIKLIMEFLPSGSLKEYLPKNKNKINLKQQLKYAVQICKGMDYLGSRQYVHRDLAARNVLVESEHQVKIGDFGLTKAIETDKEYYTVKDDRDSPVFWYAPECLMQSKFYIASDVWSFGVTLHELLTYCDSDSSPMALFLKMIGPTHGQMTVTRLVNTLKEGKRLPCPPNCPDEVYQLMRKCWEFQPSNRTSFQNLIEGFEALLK
T3 sequence (P52333 822-1111 limits assumed): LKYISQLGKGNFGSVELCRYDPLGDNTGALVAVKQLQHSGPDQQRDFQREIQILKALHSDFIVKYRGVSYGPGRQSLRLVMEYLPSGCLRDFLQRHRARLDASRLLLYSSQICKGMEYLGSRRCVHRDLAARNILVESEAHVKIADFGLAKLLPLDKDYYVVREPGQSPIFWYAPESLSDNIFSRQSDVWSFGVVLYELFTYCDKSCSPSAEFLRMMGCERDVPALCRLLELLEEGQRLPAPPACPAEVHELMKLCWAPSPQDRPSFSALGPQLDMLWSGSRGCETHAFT

SMILES | EC50 [1, 5] [nM] | EC50 [2, 6] [nM] | EC50 [3, 7] [nM] | EC50 [4, 8] [nM] | EC50 [1, 9] [nM] | EC50 [2, 10] [nM] | EC50 [3, 11] [nM] | EC50 [4, 12] [nM] | other results
CS(=O)(=O)c1ccc(C(=O)N2CCN(c3ncnc4[nH]ccc34)CC23CC3)c(F)c1 [Example 183, (2-Fluoro-4-methanesulfonyl-phenyl)-[7-(7H-pyrrolo[2,3-d]pyrimidin-4-yl)-4,7-diaza-spiro[2.5]oct-4-yl]-methanone] | < 100 | < 100 | < 100 | < 100 |  |  |  |  | 
O=C([C@H]1CCCc2ccccc21)N1CCN(c2ncnc3[nH]ccc23)CC12CC2 [Example 416, [7-(7H-Pyrrolo[2,3-d]pyrimidin-4-yl)-4,7-diaza-spiro[2.5]oct-4-yl]-(1,2,3,4-tetrahydro-naphthalen-1-yl)-methanone] |  |  |  |  | 100 to 500 | < 100 | 100 to 500 | > 500 | 
N#Cc1ccc2[nH]c(C(=O)N3CCN(c4ncnc5[nH]ccc45)CC34CC4)cc2c1 [Example 217, 2-[7-(7H-Pyrrolo[2,3-d]pyrimidin-4-yl)-4,7-diaza-spiro[2.5]octane-4-carbonyl]-1H-indole-5-carbonitrile] |  |  |  |  | < 100 | < 100 | < 100 | 100 to 500 | 
O=C1CC(C(=O)N2CCN(c3ncnc4[nH]ccc34)CC23CC3)c2ccccc21 (stereo not shown) [Example 126, 3-[7-(7H-Pyrrolo[2,3-d]pyrimidin-4-yl)-4,7-diaza-spiro[2.5]octane-4-carbonyl]-indan-1-one] | < 100 | < 100 | 100 to 500 | > 500 |  |  |  |  | 
COc1cnc2[nH]ccc2c1N1CCN(C(=O)CCCC#N)C2(CC2)C1 [Example 293, 5-[7-(5-Methoxy-1H-pyrrolo[2,3-b]pyridin-4-yl)-4,7-diaza-spiro[2.5]oct-4-yl]-5-oxo-pentanenitrile] |  |  |  |  | < 100 | < 100 | < 100 | 100 to 500 | 
Cc1cc(S(N)(=O)=O)ccc1OCC(=O)N1CCN(c2ncnc3[nH]ccc23)CC12CC2 [Example 411, 3-Methyl-4-{2-oxo-2-[7-(7H-pyrrolo[2,3-d]pyrimidin-4-yl)-4,7-diaza-spiro[2.5]oct-4-yl]-ethoxy}-benzenesulfonamide] |  |  |  |  | < 100 | < 100 | < 100 | < 100 | 
NS(=O)(=O)c1ccc(NCCC(=O)N2CCN(c3ncnc4[nH]ccc34)CC23CC3)cc1 [Example 453, 4-{3-Oxo-3-[7-(7H-pyrrolo[2,3-d]pyrimidin-4-yl)-4,7-diaza-spiro[2.5]oct-4-yl]-propylamino}-benzenesulfonamide] |  |  |  |  |  |  |  |  | EC50 ([1]; HTRF assay, read-out: JAK1 kinase inhibitory activity (EC50)): < 100 nM; EC50 ([2]; HTRF assay, read-out: JAK2 kinase inhibitory activity (EC50)): < 100 nM; EC50 ([3]; HTRF assay, read-out: JAK3 kinase inhibitory activity (EC50)): 100 to 500 nM; EC50 ([4]; HTRF assay, read-out: TYK2 kinase inhibitory activity (EC50)): > 500 nM
N#CC1(C(=O)N2CCN(c3ncnc4[nH]ccc34)CC23CC3)CC1 [Example 165, 1-[7-(7H-Pyrrolo[2,3-d]pyrimidin-4-yl)-4,7-diaza-spiro[2.5]octane-4-carbonyl]-cyclopropanecarbonitrile] | < 100 | < 100 | < 100 | 100 to 500 |  |  |  |  | 
O=C(c1ccccc1)N1[C@@H]2CC[C@H]1CN(c1ncnc3[nH]ccc13)C2 [Example 33, Phenyl-[3-(7H-pyrrolo[2,3-d]pyrimidin-4-yl)-3,8-diazabicyclo[3.2.1]oct-8-yl]methanone] | < 100 | < 100 | 100 to 500 | 100 to 500 |  |  |  |  | 
CS(=O)(=O)c1ccc(CC(=O)N2CCN(c3ncnc4[nH]ccc34)CC23CC3)cc1 [Example 420, 2-(4-Methanesulfonyl-phenyl)-1-[7-(7H-pyrrolo[2,3-d]pyrimidin-4-yl)-4,7-diaza-spiro[2.5]oct-4-yl]-ethanone] |  |  |  |  | < 100 | < 100 | < 100 | > 500 | 
CN(CCC#N)C(=O)C1(C(=O)N2CCN(c3ncnc4[nH]ccc34)CC23CC3)CC1 [Example 87, 1-[7-(7H-Pyrrolo[2,3-d]pyrimidin-4-yl)-4,7-diaza-spiro[2.5]octane-4-carbonyl]-cyclopropanecarboxylic acid (2-cyano-ethyl)-methyl-amide] | > 500 | > 500 | > 500 | > 500 |  |  |  |  | 
O=C(c1ccccn1)N1CCN(c2ncnc3[nH]ccc23)CC12CC2 [Example 2, Pyridin-2-yl-[7-(7H-pyrrolo[2,3-d]pyrimidin-4-yl)-4,7-diazaspiro[2.5]oct-4-yl]methanone] | < 100 | < 100 | 100 to 500 | 100 to 500 |  |  |  |  | 
COc1cnc2[nH]ccc2c1N1CCN(C(=O)c2cc3ccccc3[nH]2)C2(CC2)C1 [Example 288, (1H-Indol-2-yl)-[7-(5-methoxy-1H-pyrrolo[2,3-b]pyridin-4-yl)-4,7-diaza-spiro[2.5]oct-4-yl]-methanone] |  |  |  |  | > 500 | > 500 | 100 to 500 | > 500 | 
O=C(c1ccc2c(c1)CCCC2)N1CCN(c2ncnc3[nH]ccc23)CC12CC2 [Example 218, [7-(7H-Pyrrolo[2,3-d]pyrimidin-4-yl)-4,7-diaza-spiro[2.5]oct-4-yl]-(5,6,7,8-tetrahydro-naphthalen-2-yl)-methanone] |  |  |  |  | < 100 | < 100 | > 500 | > 500 | 
O=C(c1cccc(OC(F)(F)F)c1)N1CCN(c2ccnc3[nH]ccc23)CC12CC2 [Example 229, [7-(1H-Pyrrolo[2,3-b]pyridin-4-yl)-4,7-diaza-spiro[2.5]oct-4-yl]-(3-trifluoromethoxy-phenyl)-methanone] |  |  |  |  | 100 to 500 | 100 to 500 | > 500 | > 500 | 
O=C1OCCC1NC(=S)N1[C@@H]2CC[C@H]1CN(c1ncnc3[nH]ccc13)C2 (stereo partly shown) [Example 47, 3-(7H-Pyrrolo[2,3-d]pyrimidin-4-yl)-3,8-diaza-bicyclo[3.2.1]octane-8-carbothioic acid (2-oxo-tetrahydro-furan-3-yl)-amide] | 100 to 500 | 100 to 500 | 100 to 500 | > 500 |  |  |  |  | 
O=C(c1ccccc1)N1C[C@@H]2C[C@H]1CN2c1ncnc2[nH]ccc12 (racemic) [Example 253, Phenyl-[5-(7H-pyrrolo[2,3-d]pyrimidin-4-yl)-2,5-diaza-bicyclo[2.2.1]hept-2-yl]-methanone] |  |  |  |  | > 500 | > 500 | > 500 | > 500 | 
Cc1ccsc1C(=O)N1[C@@H]2CC[C@@H]1CN(c1ncnc3[nH]ccc13)C2 [Example 243, (3-Methyl-thiophen-2-yl)-[3-(7H-pyrrolo[2,3-d]pyrimidin-4-yl)-3,8-diaza-bicyclo[3.2.1]oct-8-yl]-methanone] |  |  |  |  | 100 to 500 | < 100 | 100 to 500 | > 500 | 
O=C(c1cc2cc(F)ccc2[nH]1)N1CCN(c2ncnc3[nH]ccc23)CC12CC2 [Example 361, (5-Fluoro-1H-indol-2-yl)-[7-(7H-pyrrolo[2,3-d]pyrimidin-4-yl)-4,7-diaza-spiro[2.5]oct-4-yl]-methanone] |  |  |  |  | < 100 | < 100 | < 100 | < 100 | 
Cc1c(C(=O)N2[C@H]3CC[C@H]2CN(c2ncnc4[nH]ccc24)C3)sc2ccccc12 [Example 245, (3-Methyl-benzo[b]thiophen-2-yl)-[3-(7H-pyrrolo[2,3-d]pyrimidin-4-yl)-3,8-diaza-bicyclo[3.2.1]oct-8-yl]-methanone] |  |  |  |  | < 100 | < 100 | < 100 | > 500 | 
Cc1cncc(C(=O)N2[C@@H]3CC[C@H]2CN(c2ncnc4[nH]ccc24)C3)n1 [Example 73, (6-Methyl-pyrazin-2-yl)-[3-(7H-pyrrolo[2,3-d]pyrimidin-4-yl)-3,8-diaza-bicyclo[3.2.1]oct-8-yl]-methanone] | < 100 | 100 to 500 | 100 to 500 | > 500 |  |  |  |  | 
O=C(Cc1cccs1)N1CCN(c2ncnc3[nH]ccc23)CC12CC2 [Example 190, 1-[7-(7H-Pyrrolo[2,3-d]pyrimidin-4-yl)-4,7-diaza-spiro[2.5]oct-4-yl]-2-thiophen-2-yl-ethanone] | < 100 | < 100 | < 100 | 100 to 500 |  |  |  |  | 
